Measured values as given in paper PMC3117672 (ChemMedChem, 2010).

Target: mPTPB (Mycobacterium tuberculosis, UniProt I6WXK4)
Settings: read-out: IC50 for mPTPB; pH 7

Sequence of mPTPB (I6WXK4 whole entry, looked up): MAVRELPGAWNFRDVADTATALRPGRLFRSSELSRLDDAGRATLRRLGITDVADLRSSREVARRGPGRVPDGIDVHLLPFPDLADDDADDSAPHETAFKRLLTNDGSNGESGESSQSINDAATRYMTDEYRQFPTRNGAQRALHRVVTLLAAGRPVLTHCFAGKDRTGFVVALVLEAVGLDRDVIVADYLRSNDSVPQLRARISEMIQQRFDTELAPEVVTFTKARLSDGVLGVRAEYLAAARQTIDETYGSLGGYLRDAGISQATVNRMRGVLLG

C#CCOc1c(C(=O)O)cc2cc(Cl)cc(OCC#C)c2c1Cl [Compound L5]
IC50: 75 µM
